Test results reported in patent US8962600B2, “Neuroprotective compounds and their use” (The Medical College of Wisconsin, Inc., priority 2009, dated 2015).

Assays:
GFAP = GFAP expression in substantia nigra (astroglial activation), immunostaining; assay type: in vivo, C57BL/6 mice; conditions: diapocynin 300 mg/kg gavage, 1 day pre-treatment + 4 days co-treatment with MPTP 25 mg/kg i.p.
Protocol: For checking inflammatory and oxidative stress markers, mice were gavaged diapocynin (300 mg/kg dose) 1 day before MPTP treatment (pre-treatment) and continued for another 4 days of co-treatment with MPTP. In the sub-acute MPTP regimen, MPTP (25 mg/kg) was injected intraperitoneally once per day from day 2 to day 7. Control mice received saline at the same dosage.
Four days after MPTP treatment, mice were perfused with 4% paraformaldehyde (PFA) and post-fixed with PFA and 30% sucrose, respectively. Next, fixed brains were cut into 30 μm sections and kept in 30% sucrose-ethylene glycol solutions at −20° C. On the day of staining, sections were rinsed with phosphate-buffered saline (PBS) and incubated with different primary antibodies, including anti-IBA-1 (DAKO, Carpinteria, Calif.), anti-GFAP (Millipore, Billerica, Mass.), anti-iNOS (Santa Cruz Biotechnology, Santa Cruz, Calif.), anti-3NT (Millipore), anti-4HNE (R&D Systems, Minneapolis, Minn.) and anti-gp91phox (Santa Cruz Biotechnology) for overnight at 4° C. Appropriate secondary antibodies (Alexa Fluor 488, 594, or 555 from Invitrogen, Carlsbad, Calif.) were used followed by incubation with 10 μg/ml Hoechst 33342 for 5 min at room temperature to stain the nucleus. Sections were viewed under a Nikon inverted fluorescence microscope (model TE-2000U; Nikon, Tokyo, Japan). […]

NOS2 = assay: LPS-induced NOS2 protein expression in BV2 cells, Western blot; assay type: cell-based, mouse; conditions: diapocynin 10 μM 30 min pretreatment, LPS 1 μg/ml 24 hr, back to basal level or below
Protocol: Two cell models of neuroinflammation were used to evaluate the anti-neuroinflammatory property of diapocynin including the mouse BV2 microglial cell line, as well as primary microglia isolated from mouse brains. BV2 cells were obtained from the American Tissue Culture Collection. BV2 cells were maintained in RPMI containing 10% FBS and 100 units of pen/strep at 37° C. and 5% CO2. For treatments, RPMI containing 2% FBS and 100 units of pen/strep was used.
BV2 cell lysates containing equal amounts of protein were loaded in each lane and separated on a 10% SDS-PAGE gel. After separation, the protein was transferred to a nitrocellulose membrane. Non-specific binding sites were blocked with Li-cor blocking buffer for 45 min. The membranes were then treated with primary antibodies directed against NOS2 (mouse monoclonal 1:200) and p67phox (rabbit polyclonal 1:200). To confirm equal amounts of protein were loaded, membranes were also probed for β-actin with a β-actin antibody (dilution of 1:10,000). Secondary antibodies, donkey anti-mouse (Invitrogen) and conjugated anti-rabbit IgG (Rockland), were used at a dilution of 1:10,000 for 1 hr at room temperature. The membranes were imaged and captured using a Li-COR Odyssey infrared imaging system and software.

MPTP-intoxicated mice = assay: Rotarod in MPTP-injected mice; assay type: in vivo, C57BL/6 mice; conditions: 20 rpm; MPTP- and diapocynin-treated mice; 300 mg/kg oral gavage; 5 days after last MPTP injection
Protocol: Six- to 8-week-old C57BL/6 mice weighing 24 to 28 g were housed in standard conditions of constant temperature (22±1° C.), humidity (relative, 30%), and a 12-h light/dark cycle. Mice were allowed free access to food and water. Use of the animals and protocol procedures were approved and supervised by the Committee on Animal Care at Iowa State University (Ames, Iowa). For neurodegeneration studies, mice either received diapocynin (300 mg/kg dose) by oral gavage for 1 day (pre-treatment before MPTP administration), 5 days (co-treatment with MPTP), or 7 days (post-treatment after MPTP).
Two types of behavioral tests were performed including an Open Field experiment for testing locomotor activities and a Rotarod experiment to test coordination of movement of mice after MPTP and diapocynin treatment (48, 56). An Open Field activity monitor (model RXYZCM-16; AccuScan, Columbus, Ohio) was used to measure the spontaneous activity of mice. The activity chamber was 40×40×30.5 cm, made of clear PLEXIGLAS® and covered with a PLEXIGLAS® lid with holes for ventilation. Infrared monitoring sensors were located every 2.54 cm along the perimeter (16 infrared beams along each side) and 2.5 cm above the floor. Two additional sets of 16 sensors were located 8.0 cm above the floor on opposite sides. Data were collected and analyzed by a VersaMax Analyzer (model CDA-8, AccuScan). […]

SMILES: COc1cc(C(C)=O)cc(-c2cc(C(C)=O)cc(OC)c2O)c1O [diapocynin]
- GFAP protein expression in substantia nigra (GFAP): inhibition
- reducing LPS-induced NOS2 protein expression (NOS2): extremely effective
- decrease in time spent on Rotarod compared to control mice (MPTP-intoxicated mice): < 25%
